Assays:
Phytophthora infestans [1] = assay: microbe, parasite or virus in culture; format: cell-based; conditions: for inhibition of growth at 30 ppm: Phytophthora infestans, 168 h, read-out: control (radial growth) compared to the untreated check
Phytophthora infestans [2] = assay: whole plant or invertebrate; format: in vivo; conditions: for pest or weed control at 50 ppm: Phytophthora infestans, in Solanum lycopersicum, read-out: control (disease severity) compared to the untreated check
Plasmopara viticola = Plasmopara viticola test in grape, preventive; format: in vivo; conditions: Plasmopara viticola, 50 ppm spray, grape seedlings inoculated one day after treatment, read-out: control (disease severity) compared to the untreated check
Procedure: Example B: Plasmopara viticola Test in Grape
Compounds were dissolved in 2% DMSO/Acetone & then mixed with water to calibrated spray volume of 50 ml. This 50 ml spray solution was poured into the spray bottles for further applications.
To test the preventive activity of compounds, five week old healthy grape seedlings raised in the greenhouse were sprayed with active compound preparation at the stated application rates inside the spray cabinets using hallow-cone nozzles. One day after treatment, the plants were inoculated with inoculum suspension (Cold sterile water) containing 6×10^6 Plasmopara viticola inoculum. The inoculated plants were then kept in greenhouse chamber at 18-21° C. temperature and 95-100% relative humidity for disease expression. Compounds
A visual assessment of compound's performance was carried by rating the disease severity (0-100% scale) on treated plants on 3, 7, 10 and 15 days after application. Efficacy (% control) of the compounds was calculated by comparing the disease rating in the treatment with untreated control. The sprayed plants were also assessed for compound's phytotoxic effects by recording symptoms like necrosis, chlorosis and stunting.

SMILES | inhibition of growth at 30 ppm (Phytophthora infestans [1]) [%] | pest or weed control at 50 ppm (Phytophthora infestans [2]) [%] | pest or weed control at 50 ppm (Plasmopara viticola) [%] | control (radial growth) compared to the untreated check (Phytophthora infestans [1]; 30 ppm in Rye Agar medium, seven days at 18° C.) [%] | control (disease severity) compared to the untreated check (Phytophthora infestans [2]; 50 ppm spray, preventive, Tomato plants inoculated one day after treatment) [%]
CS(=O)(=O)Oc1cccc(Cl)c1C1CC(c2csc(C3CCN(C(=O)COc4ncc(Br)cc4C(F)(F)F)CC3)n2)=NO1 (centres unmarked) [Compound 36] | 70 | 90 | 90 |  | 
Cc1ccc(C(F)(F)F)c(OCC(=O)N2CCC(c3nc(C4=NOC(c5c(Cl)cccc5OS(C)(=O)=O)C4)cs3)CC2)n1 (centres unmarked) [Compound 42, 3-chloro-2-(3-(2-(1-(2-((6-methyl-3-(trifluoromethyl)pyridin-2-yl)oxy)acetyl)piperidin-4-yl)thiazol-4-yl)-4,5-dihydroisoxazol-5-yl)phenyl methanesulfonate] | 70 | 90 | 90 |  | 
Cc1ccc(C(F)(F)F)c(OCC(=O)N2CCC(c3nc(C4=NOC(c5c(Cl)cc(Cl)cc5Cl)C4)cs3)CC2)n1 (centres unmarked) [Compound 39, 2-((6-methyl-3-(trifluoromethyl)pyridin-2-yl)oxy)-1-(4-(4-(5-(2,4,6-trichlorophenyl)-4,5-dihydroisoxazol-3-yl)thiazol-2-yl)piperidin-1-yl)ethan-1-one] | 70 | 90 | 90 |  | 
O=C(COc1ncccc1C(F)F)N1CCC(c2nc(C3=NOC(c4c(F)cccc4F)C3)cs2)CC1 (centres unmarked) [Compound 86, 2-((3-(difluoromethyl)pyridin-2-yl)oxy)-1-(4-(4-(5-(2,6-difluorophenyl)-4,5-dihydroisoxazol-3-yl)thiazol-2-yl)piperidin-1-yl)ethan-1-one] | 70 | 90 | 90 |  | 
O=C(COc1ncccc1C(F)(F)F)N1CCC(c2nc(C3=NOC(c4c(Cl)cccc4Cl)C3)cs2)CC1 (centres unmarked) [Compound 27] | 70 | 90 | 90 |  | 
Cc1cccnc1OCC(=O)N1CCC(c2nc(C3=NOC(c4c(Cl)cccc4Cl)C3)cs2)CC1 (centres unmarked) [Compound 76, 1-(4-(4-(5-(2,6-dichlorophenyl)-4,5-dihydroisoxazol-3-yl)thiazol-2-yl)piperidin-1-yl)-2-((3-methylpyridin-2-yl)oxy)ethan-1-one] | 70 | 90 | 90 |  | 
Cn1nc(OCC(=O)N2CCC(c3nc(C4=NOC(c5c(Cl)cccc5Cl)C4)cs3)CC2)cc1C(F)(F)F (centres unmarked) [Compound 15, 1-(4-(4-(5-(2,6-dichlorophenyl)-4,5-dihydroisoxazol-3-yl)thiazol-2-yl)piperidin-1-yl)-2-((1-methyl-5-(trifluoromethyl)-1H-pyrazol-3-yl)oxy)ethan-1-one] | 70 | 90 | 90 |  | 
O=C(COc1ncccc1C(F)(F)F)N1CCC(c2nc(C3=NOC(c4ccccc4F)C3)cs2)CC1 (centres unmarked) [Compound 66, 1-(4-(4-(5-(2-fluorophenyl)-4,5-dihydroisoxazol-3-yl)thiazol-2-yl)piperidin-1-yl)-2-((3-(trifluoromethyl)pyridin-2-yl)oxy)ethan-1-one] | 70 | 90 | 90 |  | 
O=C(COc1ncccc1C(F)(F)F)N1CCC(c2nc(C3=NOC(c4c(F)cccc4F)C3)cs2)CC1 (centres unmarked) [Compound 29, 1-(4-(4-(5-(2,6-difluorophenyl)-4,5-dihydroisoxazol-3-yl)thiazol-2-yl)piperidin-1-yl)-2-((3-(trifluoromethyl)pyridin-2-yl)oxy) ethan-1-one] | 70 | 90 | 90 |  | 
O=C(COc1ncc(Br)cc1C(F)(F)F)N1CCC(c2nc(C3=NOC(c4c(Cl)cccc4Cl)C3)cs2)CC1 (centres unmarked) [Compound 35, 2-((5-bromo-3-(trifluoromethyl)pyridin-2-yl)oxy)-1-(4-(4-(5-(2,6-dichlorophenyl)-4,5-dihydroisoxazol-3-yl)thiazol-2-yl)piperidin-1-yl)ethan-1-one] | 70 | 90 | 90 |  | 
Cc1ccc(C(F)(F)F)c(OCC(=O)N2CCC(c3nc(C4=NOC(c5c(Cl)cccc5Cl)C4)cs3)CC2)n1 (centres unmarked) [Compound 41, 1-(4-(4-(5-(2,6-dichlorophenyl)-4,5-dihydroisoxazol-3-yl)thiazol-2-yl)piperidin-1-yl)-2-((6-methyl-3-(trifluoromethyl)pyridin-2-yl)oxy)ethan-1-one] | 70 | 90 | 90 |  | 
O=C(COc1ncc(Cl)cc1C(F)(F)F)N1CCC(c2nc(C3=NOC(c4c(F)cccc4F)C3)cs2)CC1 (centres unmarked) [Compound 33] | 70 | 90 | 90 |  | 
Cc1ccc(C(F)(F)F)c(OCC(=O)N2CCC(c3nc(C4=NOC(c5c(F)cccc5F)C4)cs3)CC2)n1 (centres unmarked) [Compound 40, 1-(4-(4-(5-(2,6-difluorophenyl)-4,5-dihydroisoxazol-3-yl)thiazol-2-yl)piperidin-1-yl)-2-((6-methyl-3-(trifluoromethyl)pyridin-2-yl)oxy)ethan-1-one] | 70 | 90 |  |  | 
O=C(COc1ncc(Cl)cc1C(F)(F)F)N1CCC(c2nc(C3=NOC(c4c(Cl)cc(Cl)cc4Cl)C3)cs2)CC1 (centres unmarked) [Compound 34] | 70 | 90 | 90 |  | 
Cc1cccnc1OCC(=O)N1CCC(c2nc(C3=NOC(c4c(F)cccc4F)C3)cs2)CC1 (centres unmarked) [Compound 77, 1-(4-(4-(5-(2,6-difluorophenyl)-4,5-dihydroisoxazol-3-yl)thiazol-2-yl)piperidin-1-yl)-2-((3-methylpyridin-2-yl)oxy)ethan-1-one] | 70 | 90 | 90 |  | 
Cn1nc(C(F)(F)F)cc1OCC(=O)N1CCC(c2nc(C3=NOC(c4c(Cl)cc(Cl)cc4Cl)C3)cs2)CC1 (centres unmarked) [Compound 10, 2-((1-methyl-3-(trifluoromethyl)-1H-pyrazol-5-yl)oxy)-1-(4-(4-(5-(2,4,6-trichlorophenyl)-4,5-dihydroisoxazol-3-yl)thiazol-2-yl)piperidin-1-yl)ethan-1-one] | 70 | 90 | 90 |  | 
O=C(COc1ncc(Cl)cc1C(F)(F)F)N1CCC(c2nc(C3=NOC(c4c(Cl)cccc4Cl)C3)cs2)CC1 (centres unmarked) [Compound 31, 2-((5-chloro-3-(trifluoromethyl)pyridin-2-yl)oxy)-1-(4-(4-(5-(2,6-dichlorophenyl)-4,5-dihydroisoxazol-3-yl)thiazol-2-yl)piperidin-1-yl)ethan-1-one] | 70 | 90 | 90 |  | 
O=C(CSc1ncccc1C(F)(F)F)N1CCC(c2nc(C3=NOC(c4c(F)cccc4F)C3)cs2)CC1 (centres unmarked) [Compound 62, 1-(4-(4-(5-(2,6-difluorophenyl)-4,5-dihydroisoxazol-3-yl)thiazol-2-yl)piperidin-1-yl)-2-((3-(trifluoromethyl)pyridin-2-yl)thio)ethan-1-one] | 70 | 90 | 90 |  | 
CS(=O)(=O)Oc1cccc(Cl)c1C1CC(c2csc(C3CCN(C(=O)CSc4ncccc4C(F)(F)F)CC3)n2)=NO1 (centres unmarked) [Compound 61, 3-chloro-2-(3-(2-(1-(2-((3-(trifluoromethyl)pyridin-2-yl)thio)acetyl)piperidin-4-yl)thiazol-4-yl)-4,5-dihydroisoxazol-5-yl)phenyl methanesulfonate] | 70 | 90 | 90 |  | 
CS(=O)(=O)Oc1cccc(Cl)c1C1CC(c2csc(C3CCN(C(=O)COc4ncc(C(F)(F)F)cc4Br)CC3)n2)=NO1 (centres unmarked) [Compound 52] | 70 | 90 | 90 |  | 
CS(=O)(=O)Oc1cccc(Cl)c1C1CC(c2csc(C3CCN(C(=O)COc4ncccc4C(F)(F)F)CC3)n2)=NO1 (centres unmarked) [Compound 28, 3-chloro-2-(3-(2-(1-(2-((3-(trifluoromethyl)pyridin-2-yl)oxy)acetyl)piperidin-4-yl)thiazol-4-yl)-4,5-dihydroisoxazol-5-yl)phenyl methanesulfonate] | 70 | 90 |  |  | 
Cc1cnc(OCC(=O)N2CCC(c3nc(C4=NOC(c5c(Cl)cccc5OS(C)(=O)=O)C4)cs3)CC2)c(C(F)(F)F)c1 (centres unmarked) [Compound 85, 3-chloro-2-(3-(2-(1-(2-((5-methyl-3-(trifluoromethyl)pyridin-2-yl)oxy)acetyl)piperidin-4-yl)thiazol-4-yl)-4,5-dihydroisoxazol-5-yl)phenyl methanesulfonate] | 70 |  |  |  | 
O=C(CSc1ncc(C(F)(F)F)cc1Cl)N1CCC(c2nc(C3=NOC(c4c(F)cccc4F)C3)cs2)CC1 (centres unmarked) [Compound 65, 2-((3-chloro-5-(trifluoromethyl)pyridin-2-yl)thio)-1-(4-(4-(5-(2,6-difluorophenyl)-4,5-dihydroisoxazol-3-yl)thiazol-2-yl)piperidin-1-yl)ethan-1-one] | 70 |  |  |  | 
COc1ccc(C2CC(c3csc(C4CCN(C(=O)COc5ncc(Cl)cc5C(F)(F)F)CC4)n3)=NO2)cc1 (centres unmarked) [Compound 67] |  |  |  | 70 | 90

Reference: patent publication US20200281202A1 (priority 2017, published 2020)
